Consider 3 molecules from US10488417B2, “Compounds for use as imaging agents” (United Arab Emirates University, priority 2014, dated 2019).

For assay [1], the target named is T1, preformed α-synuclein fibrils (Homo sapiens, UniProt P37840).
T1 construct: GST (N, cleaved yes); made in house; host or cells: E. coli BL21
As to the kind of experiment: α-synuclein disaggregation assay on preformed fibrils (Th-T). It is filed as biochemical. To be noted: 25 μM preformed fibrils; for effect on preformed α-synuclein fibrils (Th-T counts): ratios 6:1, 4:1, 2:1, 48 hours, 37° C. Here is the method: α-Synuclein solution in PBS (pH 7.4) was aggregated at a concentration of 25 μM as indicated above. The resulting aggregated α-synuclein was incubated either alone or with Gn Rb1 or dihydromyricetin at various molar ratios (compound: α-synuclein molar ratios of 6:1, 4:1 and 2:1). It should be noted that for the purpose of the experiment, the concentration of α-synuclein taken into account was the concentration of fresh α-synuclein. The samples were incubated at 37° C. for 48 hours on a thermomixer with continuous shaking at 800 rpm. Samples were collected at regular time points, and Th-T fluorescence was measured immediately.
Due to their high efficiency to inhibit α-synuclein fibrillation, Gn Rb1 and dihydromyricetin were assessed for their effectiveness on reversing fibrillation. 25 μM of preformed α-synuclein fibrils were incubated at 37° C. in the presence of Gn Rb1 or dihydromyricetin at varying molar ratios (compound: α-synuclein of 6:1, 4:1 and 2:1) for a period of 48 hours. By measuring the Th-T fluorescence counts (FIGS. 7A-7B), the fibril content was estimated at different time points.

In assay [2] the target is T2, monomeric α-synuclein (Homo sapiens, UniProt P37840).
T2 construct: made in house
As to the kind of experiment: NMR titration into monomeric α-synuclein. The class given is binding. To be noted: stoichiometries of up to 6:1 compound: α-synuclein, 100 μM α-synuclein. Here is the method:
For NMR studies, recombinant ^15N-labeled α-synuclein was expressed and purified as previously described, resuspended in PBS buffer at pH 6.6. Two-dimensional ^1H-^15N HQSC spectra were acquired for α-synuclein at 100 μM concentration in the absence of Gn Rb1 and in the presence of increasing Gn Rb1: α-synuclein stoichiometries of 1:1, 4:1 and 6:1. Data were collected on a Bruker 900 MHz spectrometer equipped with a cold probe.

Assay [3] has as its target T3, α-synuclein (Homo sapiens, UniProt P37840).
T3 construct: GST (N, cleaved yes); made in house; host or cells: E. coli BL21
Kind of assay: Seeding polymerization assay of α-synuclein monomers (Th-T, TEM). It is filed as biochemical. The note with it: for inhibition of the seeding process / inhibition at 50 µM: 6 hours, 100 μM monomeric α-synuclein, 2 μM seeds; for inhibition at 50 µM: read-out: inhibition of the seeding process. Here is the method:
The aggregation of monomeric α-synuclein with or without seeding was performed as described elsewhere. The seeds were prepared by fragmenting the mature α-synuclein fibrils by sonication to obtain short fibrils, which were employed as ‘seeds’. Briefly, monomeric α-synuclein at a concentration of 100 μM was seeded with 2 μM of seeds and incubated in the presence or absence of the compounds (10 μM or 50 μM) at 37° C. for 6 hours with continuous shaking. The fibrillization was monitored by Th-T binding assay as described above.
To assess the effect of salvianolic acid B, dihydromyricetin and Gn Rb1 on the seeding of α-synuclein aggregation, the compounds were added at concentrations of 10 or 50 μM to 100 μM monomeric α-synuclein containing seeds at a final concentration of 2 μM. The mixture was then incubated with continuous mixing at 37° C. for 6 hours.

Assay [4] has as its system BE(2)-M17 human neuroblastoma cells. As to the kind of experiment: α-synuclein-induced cytotoxicity, MTT cell viability. It is filed as cell-based. Here is the method: BE(2)-M17 human neuroblastoma cells were routinely cultured in Dulbecco's MEM/Nutrient Mix F-12 (1:1) (Gibco BRL, Rockville, Md.) containing 15% fetal bovine serum and 1% penicillin-streptomycin (P/S; 100 U/ml penicillin, […]). The cells were maintained at 37° C. in a humidified incubator with 5% CO2/95% air.
BE(2)-M17 cells suspended in DMEM medium were plated at a density of 15,000 cells (100 μL/well) in a 96-well plate. After 24 hours, the medium was replaced with 200 μL of OPTI-MEM (Gibco-USA) serum-free medium containing aged α-synuclein solutions with or without the compounds. Aged α-synuclein and compound-containing solutions were diluted in OPTI-MEM to obtain the desired concentration. Cells were then incubated at 37° C. in 5% CO2 for 48 hours. A total of 20 μL of MTT (3-(4,5-dimethylthiazol-2-yl)-2,5-diphenyltetrazolium bromide) (Sigma-Aldrich, USA) (6 mg/ml) in PBS was dispensed into each well, and the plate was incubated at 37° C. for 4.5 hours. The MTT-containing medium was carefully removed, and 100 μL of lysis buffer (15% SDS, 50% N,N-dimethylformamide, pH 4.7) was added to each well. The lysis buffer was incubated overnight at 37° C. before the absorbance values at 590 nm were determined by a microplate reader (Perkin Elmer).
BE(2)-M17 human neuroblastoma cells were treated with aged α-synuclein solutions at three different concentrations, 0.5 μM, 1 μM and 5 μM, either alone or in the presence of Gn Rb1, salvianolic acid B or dihydromyricetin.
The viability of cells treated with α-synuclein aged in the presence or absence of the Gn Rb1, salvianolic acid B or dihydromyricetin was determined by the MTT assay. Prior to the experiments, the effect of the Gn Rb1, salvianolic acid B and dihydromyricetin alone on cell viability was assessed (data not shown), employing the same non-toxic Gn Rb1, salvianolic acid B and dihydromyricetin concentrations that were later employed for the experiments with aged α-synuclein.

Assay [5] has as its target T4, α-synuclein fibrils (Homo sapiens, UniProt P37840).
T4 construct: GST (N, cleaved yes); made in house; host or cells: E. coli BL21
Kind of assay: Congo red binding assay of aged α-synuclein. To be noted: all tested concentrations; fibril control shifts from 490 to 508 nm. It is filed as biochemical. Here is the method:
CR is a dye with high affinity for amyloid fibrils. Congo red (20 μM) was prepared in PBS (pH 7.4) and filtered through a 0.45 μm filter. Samples of α-synuclein (5 μM), aged alone or with the compounds at different molar ratios, were mixed with Congo red (final concentration 5 μM), and the reaction samples were thoroughly mixed. The UV absorbance spectrum was recorded between 400 and 600 nm in a spectrophotometer (DU-800, Beckman-Coulter) using 10-mm quartz cuvettes (HellmaAnalytics-Germany). Congo red alone was used as blank.

Where [6] appears, read: 5 μM aged α-synuclein, all concentrations of compound, 48 hours, MTT.

On to `CC(C)=CCC[C@](C)(O[C@@H]1O[C@H](CO[C@@H]2O[C@H](CO)[C@@H](O)[C@H](O)[C@H]2O)[C@@H](O)[C@H](O)[C@H]1O)[C@H]1CC[C@]2(C)[C@@H]1[C@H](O)C[C@@H]1[C@@]3(C)CC[C@H](O[C@@H]4O[C@H](CO)[C@@H](O)[C@H](O)[C@H]4O[C@@H]4O[C@H](CO)[C@@H](O)[C@H](O)[C@H]4O)C(C)(C)[C@@H]3CC[C@]12C` [Gn Rb1, ginsenoside Rb1], for which the “effect on preformed α-synuclein fibrils (Th-T counts)” value in assay [1] is “disaggregated in a dose-dependent fashion”. Further, in assay [1] (after 4 hours of incubation, ratios 6:1, 4:1, 2:1), the “Th-T counts as fraction of the Th-T counts of the control” value is listed as “⅕”. Also, the “interaction with monomeric α-synuclein (two-dimensional NMR)” value in assay [2] is recorded as “does not interact significantly with monomeric α-synuclein”. Further, the “TEM appearance of seeded α-synuclein with compound” value in assay [3] (after 6 h of incubation, compound 50 μM) was “mostly globular forms of α-synuclein”. Besides, the “inhibition of the seeding process” value in assay [3] (compound 10 μM) is “approximately 60%”. For the same molecule, in assay [3] (compound 50 μM), the “inhibition of the seeding process” value is reported as “approximately 90%”. Moreover, the “improvement of viability of the cells” value in assay [4] (1 μM aged α-synuclein, all used concentrations of compound, MTT) is recorded as “approximately 30%”. For the same molecule, in assay [4] (setting [6]), the cells surviving result is given as “approximately 80%” and the “increase in viability of the cells” value is recorded as “approximately 30%”. Also, the “absorption maximum of Congo red bound to α-synuclein samples” value in assay [5] is not above 495 nm.

The inhibition is the relative decrease from the control value, in per cent. For `O=C1c2c(O)cc(O)cc2O[C@H](c2cc(O)c(O)c(O)c2)[C@H]1O` [dihydromyricetin], in assay [1], the “effect on preformed α-synuclein fibrils (Th-T counts)” value is “disaggregated preformed α-synuclein fibrils in a dose-dependent fashion”. The “inhibition of the seeding process” value in assay [3] (compound 10 μM) was “showed an inhibitory effect”. Further, the inhibition at 50 µM in assay [3] (compound 50 μM) was approximately 90%. The “improvement of cell viability” value in assay [4] (highest concentration, molar ratio of 4:1, MTT) is given as “approximately 10%”.

As for `O=C(/C=C/c1ccc(O)c2c1[C@H](C(=O)O[C@H](Cc1ccc(O)c(O)c1)C(=O)O)[C@@H](c1ccc(O)c(O)c1)O2)O[C@H](Cc1ccc(O)c(O)c1)C(=O)O` [salvianolic acid B], the “inhibition of the seeding process” value in assay [3] (compound 10 μM) was “to a smaller extent”. The inhibition at 50 µM in assay [3] (compound 50 μM) was approximately 90%. Besides, in assay [4] (α-synuclein aged with compound at molar ratios of 4:1 and 2:1, MTT), the cells survived entry was “approximately 95%”.
